Assay results published in ChEMBL document CHEMBL3885881, “DrugMatrix”.

Species on record: Rattus norvegicus
Assay: DrugMatrix - Regimen: Daily Repeat
Assay type: toxicity, organism-based, Sprague-Dawley
Design: regimen Daily Repeat, gender Male, age 6-8 weeks
Settings: in vivo, po, route oral GAVAGE, vehicle .5 % CMC; for ABSOLUTE BASOPHIL / ABSOLUTE EOSINOPHIL / ABSOLUTE LYMPHOCYTE / ABSOLUTE MONOCYTE / ABSOLUTE SEGMENTED NEUTROPHIL / BASOPHIL / EOSINOPHIL / ERYTHROCYTE COUNT / HEMATOCRIT / HEMOGLOBIN / LEUKOCYTE COUNT / LYMPHOCYTE / MEAN CORPUSCULAR HEMOGLOBIN / MEAN CORPUSCULAR HEMOGLOBIN CONCENTRATION / MEAN CORPUSCULAR VOLUME / MONOCYTE / NEUTROPHIL / NUCLEATED RED BLOOD CELLS / PLATELET COUNT: tissue Blood; for ALANINE AMINOTRANSFERASE / ALBUMIN / ALKALINE PHOSPHATASE / ASPARTATE AMINOTRANSFERASE / BLOOD UREA NITROGEN / CARBON DIOXIDE / CHLORIDE / CHOLESTEROL / CREATINE PHOSPHOKINASE / CREATININE / GLUCOSE / LACTATE DEHYDROGENASE / LIPASE / PHOSPHORUS / POTASSIUM / SODIUM / TOTAL BILIRUBIN / TOTAL PROTEIN / URIC ACID: tissue Plasma
[1] = 40 mg/kg, 120 h, dose level Low, time 5 day
[2] = 1200 mg/kg, 72 h, dose level High, time 3 day
[3] = 1200 mg/kg, 120 h, dose level High, time 5 day

C[C@@](Cc1ccc(O)c(O)c1)(NN)C(=O)O.O [CARBIDOPA]
ABSOLUTE BASOPHIL [1]: 0 CELLS/uL
ABSOLUTE EOSINOPHIL [1]: 155.33 CELLS/uL
ABSOLUTE LYMPHOCYTE [1]: 12037.67 CELLS/uL
ABSOLUTE MONOCYTE [1]: 0 CELLS/uL
ABSOLUTE SEGMENTED NEUTROPHIL [1]: 1407 CELLS/uL
BASOPHIL [1]: 0%
EOSINOPHIL [1]: 1%
ERYTHROCYTE COUNT [1]: 5.47 x10E6/uL
HEMATOCRIT [1]: 34.83%
HEMOGLOBIN [1]: 13.23 G/DL
LEUKOCYTE COUNT [1]: 13.6 x10E3/uL
LYMPHOCYTE [1]: 88.33%
MEAN CORPUSCULAR HEMOGLOBIN [1]: 24.23 pg
MEAN CORPUSCULAR HEMOGLOBIN CONCENTRATION [1]: 38 G/DL
MEAN CORPUSCULAR VOLUME [1]: 63.7 fL
MONOCYTE [1]: 0%
NEUTROPHIL [1]: 10.67%
NUCLEATED RED BLOOD CELLS [1]: 0 /100WBC
PLATELET COUNT [1]: 1237.67 x10E3/uL
ALANINE AMINOTRANSFERASE [1]: 28.67 u/L
ALBUMIN [1]: 4.33 G/DL
ALKALINE PHOSPHATASE [1]: 366.33 u/L
ASPARTATE AMINOTRANSFERASE [1]: 83 u/L
BLOOD UREA NITROGEN [1]: 16 mg/dL
CARBON DIOXIDE [1]: 26 mmol/L
CHLORIDE [1]: 102.33 MEQ/L
CHOLESTEROL [1]: 65.67 mg/dL
CREATINE PHOSPHOKINASE [1]: 277.33 u/L
CREATININE [1]: 0.2 mg/dL
GLUCOSE [1]: 155.67 mg/dL
LACTATE DEHYDROGENASE [1]: 251 u/L
LIPASE [1]: 8.33 u/L
PHOSPHORUS [1]: 12.53 mg/dL
POTASSIUM [1]: 6.15 MEQ/L
SODIUM [1]: 144.4 MEQ/L
TOTAL BILIRUBIN [1]: 0.2 mg/dL
TOTAL PROTEIN [1]: 6.03 G/DL
URIC ACID [1]: 1.4 mg/dL
ABSOLUTE BASOPHIL [2]: 0 CELLS/uL
ABSOLUTE EOSINOPHIL [2]: 309.67 CELLS/uL
ABSOLUTE LYMPHOCYTE [2]: 11320 CELLS/uL
ABSOLUTE MONOCYTE [2]: 0 CELLS/uL
ABSOLUTE SEGMENTED NEUTROPHIL [2]: 1103.67 CELLS/uL
BASOPHIL [2]: 0%
EOSINOPHIL [2]: 2.33%
ERYTHROCYTE COUNT [2]: 5.55 x10E6/uL
HEMATOCRIT [2]: 35.43%
HEMOGLOBIN [2]: 13.47 G/DL
LEUKOCYTE COUNT [2]: 12.73 x10E3/uL
LYMPHOCYTE [2]: 88.67%
MEAN CORPUSCULAR HEMOGLOBIN [2]: 24.3 pg
MEAN CORPUSCULAR HEMOGLOBIN CONCENTRATION [2]: 38.03 G/DL
MEAN CORPUSCULAR VOLUME [2]: 63.83 fL
MONOCYTE [2]: 0%
NEUTROPHIL [2]: 9%
NUCLEATED RED BLOOD CELLS [2]: 0 /100WBC
PLATELET COUNT [2]: 1345.33 x10E3/uL
ALANINE AMINOTRANSFERASE [2]: 8.67 u/L
ALBUMIN [2]: 4.63 G/DL
ALKALINE PHOSPHATASE [2]: 300.67 u/L
ASPARTATE AMINOTRANSFERASE [2]: 64.67 u/L
BLOOD UREA NITROGEN [2]: 22.33 mg/dL
CARBON DIOXIDE [2]: 26 mmol/L
CHLORIDE [2]: 99 MEQ/L
CHOLESTEROL [2]: 92.33 mg/dL
CREATINE PHOSPHOKINASE [2]: 315 u/L
CREATININE [2]: 0.24 mg/dL
GLUCOSE [2]: 171.33 mg/dL
LACTATE DEHYDROGENASE [2]: 80 u/L
LIPASE [2]: 8.67 u/L
PHOSPHORUS [2]: 12.73 mg/dL
POTASSIUM [2]: 6.79 MEQ/L
SODIUM [2]: 143.93 MEQ/L
TOTAL BILIRUBIN [2]: 0.17 mg/dL
TOTAL PROTEIN [2]: 6.5 G/DL
URIC ACID [2]: 1.6 mg/dL
ABSOLUTE BASOPHIL [3]: 0 CELLS/uL
ABSOLUTE EOSINOPHIL [3]: 0 CELLS/uL
ABSOLUTE LYMPHOCYTE [3]: 11666 CELLS/uL
ABSOLUTE MONOCYTE [3]: 86.67 CELLS/uL
ABSOLUTE SEGMENTED NEUTROPHIL [3]: 847.33 CELLS/uL
BASOPHIL [3]: 0%
EOSINOPHIL [3]: 0%
ERYTHROCYTE COUNT [3]: 6.03 x10E6/uL
HEMATOCRIT [3]: 37.47%
HEMOGLOBIN [3]: 14.13 G/DL
LEUKOCYTE COUNT [3]: 12.6 x10E3/uL
LYMPHOCYTE [3]: 92.33%
MEAN CORPUSCULAR HEMOGLOBIN [3]: 23.43 pg
MEAN CORPUSCULAR HEMOGLOBIN CONCENTRATION [3]: 37.7 G/DL
MEAN CORPUSCULAR VOLUME [3]: 62.1 fL
MONOCYTE [3]: 0.67%
NEUTROPHIL [3]: 7%
NUCLEATED RED BLOOD CELLS [3]: 0 /100WBC
PLATELET COUNT [3]: 1184.67 x10E3/uL
ALANINE AMINOTRANSFERASE [3]: 6.67 u/L
ALBUMIN [3]: 4.57 G/DL
ALKALINE PHOSPHATASE [3]: 323.33 u/L
ASPARTATE AMINOTRANSFERASE [3]: 44 u/L
BLOOD UREA NITROGEN [3]: 20 mg/dL
CARBON DIOXIDE [3]: 28 mmol/L
CHLORIDE [3]: 101.33 MEQ/L
CHOLESTEROL [3]: 58.67 mg/dL
CREATINE PHOSPHOKINASE [3]: 151.67 u/L
CREATININE [3]: 0.21 mg/dL
GLUCOSE [3]: 157.67 mg/dL
LACTATE DEHYDROGENASE [3]: 98 u/L
LIPASE [3]: 8 u/L
PHOSPHORUS [3]: 11.57 mg/dL
POTASSIUM [3]: 6.41 MEQ/L
SODIUM [3]: 146.5 MEQ/L
TOTAL BILIRUBIN [3]: 0.17 mg/dL
TOTAL PROTEIN [3]: 6.27 G/DL
URIC ACID [3]: 1.5 mg/dL
